Measured values published in US5039528A, “EAA antagonists as anti-emetic drugs” (priority 1989, dated 1991).
Read-outs that look alike come from different tables or passages of the source.

Columns and labels:
ferrets [1] = settings: ferrets treated with cisplatin; cited from earlier work
5-HT M receptors = settings: cited from earlier work
cancer patients = settings: cited from earlier work
Quis receptors [2] = settings: Table 1, *: not screened in chick retina assay; estimated from other reported electrophysiological data; cited from earlier work
KA receptors [3] = settings: Table 1, *: not screened in chick retina assay; estimated from other reported electrophysiological data; cited from earlier work
[4] = cited from earlier work; for BBB penetrability: Table 1; for penetration of blood brain barriers: statement in text
NMDA receptors [5] = settings: Table 1, *: not screened in chick retina assay; estimated from other reported electrophysiological data; cited from earlier work
non-NMDA receptors = assay: Chick retina assay: blocking non-NMDA receptors; type: cell-based; settings: chick retinas, relative to Kyn
KA receptors [6] = assay: Chick retina assay: protection against excitotoxic action of KA; type: cell-based; settings: Table 1, normalized to kynurenic acid vs KA = 1
Description: (§1) Antagonist potencies were established in a chick retina assay which has
(§2) (NMDA, KA and Quis) for excitotoxic properties and EAA antagonists for
(§3) potency in protecting the retina against the excitotoxic action of such
(§4) agonists. The concentration of antagonist required to totally prevent the
(§5) toxic action of an agonist was used to compare antagonists for potency.
(§6) For purposes of illustration, the data were normalized by assigning a
(§7) EAA antagonist properties have been described in each category. Antagonis
(§8) potencies were established in a chick retina assay which has been used by
(§9) Quis) for excitotoxic properties and EAA antagonists for potency in
(§10) protecting the retina against the excitotoxic action of such agonists.
(§11) concentration of antagonist required to totally prevent the toxic action
(§12) of an agonist was used to compare antagonists for potency. For purposes o
(§13) to kynurenic acid vs KA (see table 1) and all other values were adjusted

[7] = system: EAA receptors (NMDA, KA, Quis); settings: cited from earlier work
NMDA receptors [8] = assay: Chick retina assay: protection against excitotoxic action of NMDA; type: cell-based
Description: as §1, §2, §3, §4, §5, §6, §7, §8, §9, §10, §11, §12, §13

Quis receptors [9] = assay: Chick retina assay: protection against excitotoxic action of Quis; type: cell-based; settings: Table 1, normalized to kynurenic acid vs KA = 1
Description: as §1, §2, §3, §4, §5, §6, §7, §8, §9, §10, §11, §12, §13

[10] = system: area postrema-CVO neurons; settings: cited from earlier work; for emesis at a toxic dose: dogs and monkeys; for neurotoxic effects: subcutaneous, immature animals of various species including monkeys, CVO brain regions
patients = settings: high blood concentrations, humans; cited from earlier work
dogs [11] = assay: Emesis induction by glutamate in dogs; blockage by D-AP5 or Kyn; type: in vivo, dog
dogs [12] = assay: Emesis induction by KA in dogs; blockage by Kyn; type: in vivo, dog
Procedure: Kainic acid (KA), an EAA agonist which triggers the KA class of non-NMDA receptors, was administered to dogs at dosages in the vicinity of 0.5 mg/kg SC.

cerebral ischemia = settings: animal experiments, cerebral ischemia (stroke); cited from earlier work
humans = settings: cited from earlier work; for psychotic effects: humans; for serious side effects: interaction with NMDA receptors throughout the brain
dogs [13] = assay: Emesis induction by NMDA in dogs; blockage by D-AP5; type: in vivo, dog; settings: IV, in the vicinity of 5 mg/kg
Procedure: Therefore, each dog (all were young adults) was used for more than one experiment. Typically, one or more tests would be done using NMDA to determine an effective dosage for an individual dog. After the dose was established, an experiment was conducted on a subsequent day in which the dog also received 2 mg/kg D-AP5 subcutaneously (SC), along with the NMDA. On the day after that, NMDA was administered alone, to ensure that the emetic response was unchanged and the dog had not developed tolerance or sustained damage to the emesis-mediating reflexes.

ferrets [14] = assay: Emesis induction by cisplatin (8 mg/kg IV) in ferrets; blockage by Kyn; type: in vivo, ferret
Procedure: Four ferrets (a control group) received 8 mg/kg IV cisplatin, a chemotherapeutic drug which has a powerful emetic effect.
Nine ferrets were treated with cisplatin (8 mg/kg IV), and with Kyn, either by bolus (one-shot) injection using 150 mg/kg, or by continuous IV infusion using 50 mg/kg/hour.

ferrets [15] = assay: Emesis induction by cisplatin (10 mg/kg IV) in ferrets; blockage by D-AP5/CNQX; type: in vivo, ferret; settings: cisplatin 10 mg/kg IV alone, five ferrets, 5 h
Procedure: Since suitable agents such as D-AP5 are available that can block NMDA receptors without crossing the BBB, a mixture of CNQX and D-AP5 was tested to see whether a mixture of an NMDA antagonist and a non-NMDA antagonist would have anti-emetic properties. The dosage of cisplatin was increased to 10 mg/kg IV, since only 3 out of 4 of the control animals vomited when 8 mg/kg was used as described in Example 4. This increased the stringency of the test.
Five control animals (ferrets) were treated.
Five test animals were treated by cisplatin, 10 mg/kg IV, followed by intravenous infusion of a mixture of 15 mg/kg/hr CNQX and 5 mg/kg/hr D-AP5.

[16] = system: motion sickness or vertigo; settings: in vivo; cited from earlier work
[17] = system: emesis associated with cancer chemotherapy; settings: in vivo; cited from earlier work
neurons = settings: Ser. No. 424,548; cited from earlier work
[18] = of 20 cancer patients, no control group
[19] = Table 1, normalized to kynurenic acid vs KA = 1
[20] = Table 2, normalized to kynurenic acid vs KA = 1
[21] = cisplatin 8 mg/kg IV alone, 4 ferrets, 5 h observation
[22] = Kyn 50 mg/kg/hour continuous IV infusion, cisplatin 8 mg/kg IV, ferrets
[23] = Kyn 150 mg/kg bolus, cisplatin 8 mg/kg IV, ferrets

CN1C2CCCC1CC(NC(=O)c1nn(C)c3ccccc13)C2 (stereo not shown) [BRL 43694]
preventing or reducing the severity of emesis (ferrets [1]): effective in preventing or reducing the severity of emesis
5-HT M receptor antagonism (5-HT M receptors): more powerful and selective 5-HT M receptor antagonist than metoclopramide
patients with both nausea and vomiting (delayed in onset) (cancer patients; [18]): 9 patients
patients with mild nausea (cancer patients; [18]): 4 patients
patients with neither nausea nor vomiting (cancer patients; [18]): 7 patients
cisplatin patients with nausea and vomiting (cancer patients; of the 5 patients that received cisplatin): 4 patients

C/C(=C\C(N)C(=O)O)CP(=O)(O)O (stereo not shown) [CGP 37849]
EAA antagonist potency vs Quis (Quis receptors [2]): 0
EAA antagonist potency vs KA (KA receptors [3]): 0
BBB penetrability [4]: moderate
EAA antagonist potency vs NMDA (NMDA receptors [5]): 200

O=C(O)[C@@H]1C[C@H](CP(=O)(O)O)CCN1 [CGS 19755]
EAA antagonist potency vs Quis (Quis receptors [2]): 0
EAA antagonist potency vs KA (KA receptors [3]): 0
EAA antagonist potency vs NMDA (NMDA receptors [5]): 200

N#Cc1cc2[nH]c(=O)c(=O)[nH]c2cc1[N+](=O)[O-] [CNQX]
times more powerful than Kyn in blocking non-NMDA receptors (non-NMDA receptors): approximately 30 times
EAA antagonist potency vs KA (KA receptors [6]): 30
block of non-NMDA vs NMDA receptors [7]: block non-NMDA receptors substantially more powerfully than NMDA receptors
potency compared with kynurenic or 7-chloro-kynurenic acid [7]: significantly more powerful
EAA antagonist potency vs NMDA (NMDA receptors [8]; [19]): 5
EAA antagonist potency vs Quis (Quis receptors [9]): 67

O=C(O)C1CN(C/C=C/P(=O)(O)O)CCN1 (stereo not shown) [CPP-ene]
EAA antagonist potency vs Quis (Quis receptors [2]): 0
EAA antagonist potency vs KA (KA receptors [3]): 0
BBB penetrability [4]: moderate
penetration of blood brain barriers [4]: do not readily penetrate blood brain barriers
EAA antagonist potency vs NMDA (NMDA receptors [5]): 200

O=C(O)C1CN(CCCP(=O)(O)O)CCN1 (stereo not shown) [CPP]
EAA antagonist potency vs Quis (Quis receptors [2]): 0
EAA antagonist potency vs KA (KA receptors [3]): 0
EAA antagonist potency vs NMDA (NMDA receptors [5]): 200

N[C@@H](CCC(=O)O)C(=O)O [Glutamate, glutamate]
emesis at a toxic dose [10]: first causes the animal to vomit before continued excitatory stimulation destroys the area postrema-CVO neurons
neurotoxic effects [10]: powerful neurotoxic effects
emetic properties (patients): induce vomiting
penetration of blood brain barriers [4]: does not penetrate the BBB
emetic response to glutamate (dogs [11]; 150 mg/kg IV): An emetic response was observed in all animals

C=C(C)[C@H]1CN[C@H](C(=O)O)[C@H]1CC(=O)O [KA, kainic acid]
emetic response to KA (dogs [12]; in the vicinity of 0.5 mg/kg SC, without Kyn): All of the animals suffered an emetic response

C[C@]12N[C@H](Cc3ccccc31)c1ccccc12 [MK-801]
EAA antagonist potency vs NMDA (NMDA receptors [8]; [20]): 5000
neuroprotective effects (cerebral ischemia): powerful neuroprotective effects
psychotic effects (humans): psychotic effects
serious side effects (humans): psychotic disturbances and pathomorphological changes in cerebrocortical neurons

CN[C@H](CC(=O)O)C(=O)O [NMDA, N-methyl-D-aspartate]
penetration of blood brain barriers [4]: does not penetrate the BBB
emetic response to NMDA (dogs [13]): vomiting can be induced

c1ccc(C2(N3CCCCC3)CCCCC2)cc1 [PCP, phencyclidine]
EAA antagonist potency vs NMDA (NMDA receptors [8]; [20]): 2000
penetration of blood brain barriers [4]: readily penetrate BBB
penetration of blood brain barriers ([4]; listed as phencyclidine): permeate easily through BBB's
neuroprotective effects (cerebral ischemia): powerful neuroprotective effects
psychotic effects (humans): psychotic effects
serious side effects (humans): psychotic disturbances and pathomorphological changes in cerebrocortical neurons

N[C@@H](CC(=O)O)C(=O)O [aspartate]
emesis at a toxic dose [10]: first causes the animal to vomit before continued excitatory stimulation destroys the area postrema-CVO neurons
neurotoxic effects [10]: powerful neurotoxic effects
emetic properties (patients): induce vomiting

N.N.[Cl][Pt][Cl] [cisplatin]
malaise after cisplatin (ferrets [14]; [21]): All four control animals displayed persistent malaise
vomiting after cisplatin (ferrets [14]; [21]): One control animal did not vomit, but the other three vomited repeatedly
appearance of illness (ferrets [15]): all appeared ill throughout the observation period

CN(C)CCOC(c1ccccc1)c1ccccc1 [dimenhydrinate]
effect against motion sickness or vertigo [16]: relatively ineffective unless taken before a boat or airplane ride or other motion begins, or before the onset of vertigo
effect on nausea and vomiting caused by other factors [16]: not effective

O=C(O)c1cc(=O)c2ccccc2[nH]1 [kynurenic acid]
blockage of KA-induced emesis (dogs [12]; 50 mg/kg SC): emesis was blocked
EAA antagonist potency vs KA (KA receptors [6]): 1
EAA receptor subtype order of blockade [7]: NMDA>KA>Quis
EAA antagonist potency vs NMDA (NMDA receptors [8]; [19]): 4
behavior/malaise after cisplatin, treated by continuous infusion (ferrets [14]; [22]): displayed playful behavior, sought and ate food, did not appear ill
vomiting after cisplatin, treated by continuous infusion (ferrets [14]; [22]): did not vomit
appeared as ill as the control animals, treated by bolus injection (ferrets [14]; [23]): only one appeared to be as ill as the control animals
vomiting and malaise after cisplatin, treated by bolus injection (ferrets [14]; [23]): Three of the ferrets treated by bolus injection vomited once or twice and showed transient malaise
blockage of glutamate-induced emesis (dogs [11]; Kyn 75 mg/kg SC): could be blocked
EAA antagonist potency vs Quis (Quis receptors [9]): 1

CCN(CC)CCNC(=O)c1cc(Cl)c(N)cc1OC [metoclopramide]
5-HT M receptor antagonism (5-HT M receptors): only a weak 5-HT M receptor antagonist
anti-emetic effect in cancer chemotherapy [17]: only partially effective

OC(CCN1CCCC1)(c1ccccc1)C1CCCCC1 (stereo not shown) [procyclidine]
reduction of the neurotoxicity of NMDA antagonists that penetrate the BBB (neurons): effective in reducing the neurotoxicity
EAA antagonist potency vs NMDA (NMDA receptors [8]; [20]): 67

CN1[C@@H]2C[C@@H](OC(=O)[C@H](CO)c3ccccc3)C[C@H]1[C@@H]1O[C@@H]12 [scopolamine]
effect against motion sickness or vertigo [16]: relatively ineffective unless taken before a boat or airplane ride or other motion begins, or before the onset of vertigo
effect on nausea and vomiting caused by other factors [16]: not effective

OC(CCN1CCCCC1)(c1ccccc1)C1CCCCC1 (stereo not shown) [trihexyphenidyl]
reduction of the neurotoxicity of NMDA antagonists that penetrate the BBB (neurons): effective in reducing the neurotoxicity
